This data set in a line: Pharmacokinetics in whole blood. The class given is in vivo, mouse (CD-1). As to conditions: for Cmax / Tmax / AUC / CL/F / half-life: mouse, in vivo, ip, 40 mg/kg, 40 mg/kg i.p. single dose, whole blood; for AUC: read-out: AUC (area under the curve); for CL/F: read-out: CI/F (clearance as Dose/AUCINF) (converted). As to the method: For the lead compound JH-FK-08, the mechanism of action resulting in antifungal activity was tested for conservation of calcineurin inhibition. To probe the JH-FK-08 mechanism of action, MICs of JH-FK-08 were determined with fungal mutants that lack the drug-binding protein FKBP12 or have mutations in the binding site on calcineurin that prevent FKBP12-FK506 binding and inhibition. […] Taken together, these findings support the hypothesis that JH-FK-08 requires FKBP12 for antifungal activity, and the target of the FKBP12-JH-FK-08 complex is calcineurin. The length of time that drugs are active in vivo is critical information relevant to drug development, and the time frame of drug activity can have a drastic impact on treatment regimen and efficacy. Therefore, the pharmacokinetic profiles of FK506 and JH-FK-08 were investigated. Three male and three female CD1 mice were administered a single dose of JH-FK-08 or FK506 at 40 mg/kg. Whole blood samples were taken over a 24-hour period, and the drug concentration remaining in the blood was determined. Pharmacokinetic parameters were calculated using a non-compartmental approach (see, Gabrielsson J, Weiner D. 2012. Methods Mot Biol Clifton NJ 929:377-389). […] When assessing specific pharmacokinetic measures, sex differences began to emerge.
Male (n=3, avg. 28 g) and female (n=3, avg. 25 g) CD-1 mice were injected intraperitoneally with 40 mg/kg of either JH-FK-08 or FK506. The drug formulation was 10% Kolliphor/10% ethanol/80% PBS given as 10 μL/g body weight (i.e., 200 μL per 20 g mouse). Blood (~30 μL) was collected serially (“tail snip”) at 10, 20, and 45 min and 1.5, 3, 6, 12, and 24 h into vials containing […] of 75 mg/mL K2EDTA in water and immediately frozen until the day of liquid chromatography-tandem-mass spectroscopy (LC/MS/MS) analysis. Blood concentration/time data were utilized to calculate relevant PK parameters using the non-compartmental approach and extravascular administration model within WinNonlin (2.1) software.
In a 0.5-mL polypropylene vial, 10 μL blood and 20 μL of acetonitrile fortified with 100 ng/mL FK520 (internal standard) were vigorously agitated in the FastPrep FP120 apparatus (Thermo-Savant) at speed four for 45 s. After centrifugation for 5 min at 16,000 rpm, 20 μL of supernatant was transferred to a polypropylene autosampler vial. LC/MS/MS (Agilent 1200 series HPLC and Sciex/Applied Biosystems API 5500 QTrap) was utilized to quantify JH-FK-08 and FK506 in mouse blood. Analytical column: Agilent Eclipse Plus (C18, 1.8 μm, 50×4.6 mm), at 40° C. Mobile phase: (A) 0.1% formic acid, 10 mM ammonium acetate, 2% acetonitrile in water, and (B) methanol. Elution gradient: 0-0.1 min 30%-98% B, 0.1-1.5 min 98% B, 1.5-1.6 min 98%-30% B, and 1.6-2.1 min 30% B. Run time: 5 min. Injection volume: 10 μL. Mass spectrometer parameters (voltages, gas flow, and temperature) were optimized by infusion of 100 ng/mL of analytes in the mobile phase at 10 μL/min using the Analyst 1.6.2 software tuning module. The MS/MS (m/z) transitions used for quantification were 864.4/846.5 (JH-FK-08), 821.4/768.5 (FK506), and 809.4/756.5 (FK520, internal standard). A set of calibrator samples in drug-free blood was prepared by adding appropriate amounts of pure analyte (JH-FK-08 or FK506) in the […] range. The calibration samples were analyzed alongside the experimental samples. The accuracy acceptance criterion was 85% for each but the lowest level (2.43 ng/mL, 80%, LLOQ). Analyst 1.6.2 software was used for data acquisition, integration of the chromatograms, calibration curve calculation, and quantification of the study samples.

Where [1] appears, read: females, read-out: t1/2 (3-12 h) (half-life) (converted).
The mark [2] stands for this setting: females, read-out: t1/2 (12-24 h) (half-life) (converted).
Setting [3] is: males, read-out: t1/2 (3-12 h) (half-life) (converted).
The mark [4] stands for this setting: males, read-out: t1/2 (12-24 h) (half-life) (converted).

Entries after “also recorded” stand apart in the source; their conditions may differ. Read-outs that look alike come from different tables or passages of the source.

The text below walks through data of patent publication US20260315446A1, “ANTIFUNGAL COMPOUNDS AND USES THEREOF” (priority 2023, published 2026).

For `C=CCC1C=C(C)CC(C)CC(OC)C2OC(O)(C(=O)C(=O)N3CCCCC3C(=O)OC(C(C)=CC3CCC(O)C(OC)C3)C(C)C(O)CC1=O)C(C)CC2OC` (stereo not shown) [FK506, reference compound], the highest concentration (Cmax) reads like this: (females) 5960 ng/mL; (males) 4510 ng/mL. Besides, the Tmax reads like this: (females) 1.11 h; (males) 0.75 h. Moreover, the AUC was 27100 ng·h/mL (females) and 15200 ng·h/mL (males). Besides, the CL/F is 25.9 mL/min/kg (females) and 49.4 mL/min/kg (males). Moreover, the half-life is 1.35 h under setting [1], 3.59 h under setting [2], 1.48 h under setting [3] and 2.46 h under setting [4].

For the compound `CC[C@@H]1/C=C(\C)C[C@H](C)C[C@H](OC)[C@H]2O[C@@](O)(C(=O)C(=O)N3CCCC[C@H]3C(=O)O[C@H](/C(C)=C/C3CC[C@@H](O)[C@H](OC)C3)[C@H](C)[C@@H](O)C/C1=N/NC(=O)OC)[C@H](C)C[C@@H]2OC` (stereo partly shown) [JH-FK-08], the “whole blood drug concentration over time versus FK506” value (40 mg/kg single dose) is “No significant differences across groups were observed in whole blood samples of drug concentration over time; also recorded: no statistically significant difference between groups”. The Cmax was determined as 7500 ng/mL (females) and 4070 ng/mL (males). For the same compound, the Tmax by setting is: (females) 2.5 h; (males) 1.25 h. In addition, the AUC was 31400 ng·h/mL (females) and 15600 ng·h/mL (males). Moreover, the CL/F by setting is: (females) 21.5 mL/min/kg; (males) 46.4 mL/min/kg. Moreover, the half-life is 1.14 h under setting [1], 1.88 h under setting [2], 1.29 h under setting [3] and 2.26 h under setting [4].

The term Cmax denotes the highest concentration seen after dosing. Usually Tmax stands for the time from dosing to the highest level. One may read the AUC as concentration integrated over time.
